Where two headings read alike, the source gives them in different places.
Assays:
Type in all cases: in vivo
[1] = system: morphine analgesic tolerance, neuropathic pain rat model
Protocol: (1) 18 healthy adult SD rats, weighing 180-220 g, were selected to build a CCI-induced neuropathic pain model. On the 7th day after modeling, those successfully-established models were randomly divided into 3 groups, where the group A was injected with normal saline; the group B was injected with morphine (15 μg, 10 μL); and the group C was injected with 0.2 μg/kg of the short peptide P10581, and then injected with morphine (15 μg, 10 μL) 30 min later. 1 h later, the PWT of each group was recorded.
(2) Each group was injected with the drug respectively at 9:00 a.m. and 5:30 p.m. from 7th day to 11th day after modeling, and the PWT of each group was measured before and after the administration in the morning every day.

[2] = system: Carr-induced inflammatory pain rat model; assay: Analgesic effect on mechanical hyperalgesia (PWT) in Carr-induced inflammatory pain rat model
Protocol: The mechanical hyperalgesia of rats was measured by 38500-pressure application measurement (PAM) system (Ugo Basile Biological Research Apparatus, Comerio-Varese, Italy), which consisted of a hand-held part and an integrated electronic part. The hand-held part was a force sensor which was designed according to a Randall-Selitto algesimeter. The integrated electronic part was configured to automatically record a maximum PWT applied to the left hind paw of the rats.
The Carr-induced inflammatory pain model was built according to a published method (Alessandri-Haber N, et al. Neurosci. Vol 29(19), pp. 6217-6288, 2009) for evaluating an analgesic effect of drugs administered by intraplantar injection. […] Those rats with a PWT lower than 100 gf were considered to be a desired Carr-induced inflammatory pain model, those rats with the PWT higher than 100 gf was removed.
(S1) A total of 18 healthy adult SD rats, weighing 180-220 g, were selected, numbered on tails and placed in the same cage.
(S2) The rats were maintained in a measuring room for 2 h for adaptation.
The measurement was repeated 3-5 times for each rat with an interval of 5-10 min. The results of multiple PWT measurements were averaged as the Baseline (BL) (unit: g). After that, 6 μL of 1 wt % Carr was intradermally injected into the plantar surface of the hind paw to build an inflammatory pain rat model.
(S4) The PWT of the left hind paw of each rat was measured 1 h after the Carr injection. Rats with a higher inflammatory threshold and rats with a lower inflammatory threshold were mixed and equally divided into three groups (group A, group B and group C), each for six rats, such that any two groups of rats had similar distribution of inflammatory threshold. The groups A, B and C were intradermally injected with normal saline, 5 mg/kg of morphine and 2 μg/kg of the short peptide P10581, respectively, at the plantar surface of the left hind paw. 1 h later, the PWT of the left hind paw of the rats in each group was measured 3-5 times at an interval of 5-10 min. The multiple PWT measurement results were averaged as the practical PWT (unit: g). Then the drug was injected every 2 h according to the above-mentioned administration dose and time, and the corresponding PWT was recorded (six injections in total).
(1) 24 healthy adult SD rats, weighing 180-220 g, were selected, reinjected with 6 μL of a 1 wt % Carr solution and divided into 4 groups randomly and averagely (i.e., groups A-D). The group A was injected with normal saline; the group B was intradermally injected with 0.1 μg/kg of the short peptide P10581 through the plantar surface of the left hind paw; the group C was intradermally injected with 0.1 μg/kg of the short peptide P10581 and then with 5 mg/kg of morphine 30 min later through the plantar surface of the left hind paw; and the group D was intradermally injected with 0.05 μg/kg of the short peptide P10581, and then with 5 mg/kg of morphine 30 min later through the plantar surface of the left hind paw. 1 h later, the PWT of each group was recorded when the mechanical withdrawal of the left hind paw occurred, and each rat was measured 3-5 times at an interval of 5-10 min.
(2) The drug was injected every 2 h according to the above-mentioned administration dose and time (seven times in total), and the PWT was recorded.
(S1) A total of 20 healthy adult SD rats (half male and half female), weighing 180-220 g, were selected, numbered on tails and transferred to the same cage.
(S4) The PWT of the left hind paw of each rat was measured 1 h after the Carr injection.

[3] = system: morphine analgesic tolerance, neuropathic pain rat model; settings: for analgesic effect of morphine restored: after 5-day continuous administration
Protocol: (1) 15 healthy adult SD rats, weighing 180-220 g, were selected to build a CCI-induced neuropathic pain model. 6 days after the modeling, successful models were randomly divided into 3 groups, where the group A was injected with 0.1 μg/kg of the short peptide P10581; the group B was injected with 5 mg/kg of the morphine; and the group C was injected with 0.1 μg/kg of the short peptide P10581, and then with 5 mg/kg of the morphine 30 min later. 1 h later, the PWT of each group was recorded.
(2) Each group was injected with the drug in the afternoon on the 6th day after the modeling, and from the 7th day to the 12th day, the drug administration was performed at 9:00 a.m. and 5:30 p.m. (5 mg/kg of morphine twice a day; and 0.1 μg/kg of the short peptide P10581 was administered 30 min before the morphine injection). The PWT of rats in each group before and after administration in the morning was measured every other day.
(1) 30 healthy adult SD rats, weighing 180-220 g, were selected to build a CCI-induced neuropathic pain model. Those successfully-established models were randomly divided into 6 groups on the 6th day, where the groups A was injected with normal saline; and the groups B-F were injected with 0.01 μg/kg, 0.025 μg/kg, 0.1 μg/kg, 0.2 μg/kg and 0.4 μg/kg of the short peptide P10581, respectively. 30 min later, the groups A-F were further injected with 5 mg/kg of the morphine, and 1 h later, the PWT of each group was recorded.
(2) Each group was injected with the drug in the afternoon on the 6th day after modeling, and from the 7th day to the 10th day, the drug administration was performed at 9:00 a.m. and 5:30 p.m. (injected twice a day consecutively for 5 days), and the PWT of each group before and after the administration in the morning was measured every other day.
In the FIG. 10B, ΔPWT (drug) and ΔPWT (Baseline) were calculated as follows: ΔPWT(drug)=PWT(post-drug)−PWT(pre-drug); and ΔPWT(Baseline)=PWT(before CCI)−PWT(after CCI).
The intensity of the relieving effect on the tolerance was represented by ΔPWT (drug)/ΔPWT (Baseline), where the ΔPWT (drug) indicated a difference between pain thresholds before and after Mor+P10581 injection in the morning.

[4] = 2 μg/kg i.d. plantar, every 2 h, six injections

Compound | effect on morphine analgesic tolerance ([1]; 0.2 μg/kg peptide intrathecal 30 min before morphine 15 μg) | analgesic effect on hyperalgesia, low dose ([2]; 0.1 μg/kg i.d., every 2 h, seven injections) | duration of analgesic effect ([2]; 2 μg/kg i.d. plantar, every 2 h) | analgesic effect on Carr-induced inflammatory pain threshold (PWT) [2, 4] | analgesic tolerance after repeated injection [2, 4] | effect on morphine analgesic tolerance ([3]; 0.1 μg/kg peptide 30 min before 5 mg/kg morphine, twice a day) | restoration of analgesic effect of morphine ([3]; 0.1 μg/kg peptide + 5 mg/kg morphine, 5th day) | analgesic effect of morphine restored, ΔPWT (drug)/ΔPWT (Baseline) ([3]; 0.2 μg/kg peptide, after 3-day consecutive injection of morphine) | analgesic effect of morphine restored ([3]; 0.2 μg/kg peptide) | effect on morphine analgesic tolerance ([3]; 0.4 μg/kg peptide + 5 mg/kg morphine (FIGS. 10A, 10B)) | effect on morphine analgesic tolerance ([3]; 0.4 μg/kg peptide, after 3-day consecutive injection of morphine) | analgesic effect of morphine restored ([3]; 0.4 μg/kg peptide) | dose at which morphine analgesic tolerance is effectively relieved ([3]; neuropathic pain, rats) | analgesic effect of morphine on neuropathic pain ([1]; rat, in vivo) | analgesic effect / tolerance after repeated injection ([2]; rat, in vivo) | analgesic effect of morphine alone ([3]; rat, in vivo)
WKCNPNDDKCCRPKLKC [P10581] | completely eliminated | no relieving effect on the hyperalgesia in rats | more than 12 h | completely reverse the Carr-induced inflammatory pain threshold | without developing the analgesic tolerance | partially relieved the morphine analgesic tolerance | restored by half | 90.1% | higher than 60% | completely reversed | completely reverse the morphine analgesic tolerance | higher than 85% | ≥ 0.01 µg/kg | – | – | –
CN1CC[C@]23c4c5ccc(O)c4O[C@H]2[C@@H](O)C=C[C@H]3[C@H]1C5 [morphine, reference compound] | – | – | – | – | – | – | – | – | – | – | – | – | – | completely disappeared | gradually declined analgesic effect with the increase in the number of injections | almost completely disappeared

From US11612634B2 (priority 2020, dated 2023)
